Laboratory results from the supplement of paper PMC9938120.

Columns and labels:
Assay in all cases: drug sensitivity score (DSS3, normalised partial AUC of % inhibition dose-response) (DSS (score)); higher = more sensitive (stronger inhibition of viability); extreme values may be limits of the assay
FMOC02_1 = patient-derived low-grade serous ovarian cancer cells; settings: 72 h; library: FO5A; assay format: 2D, 384-well, CellTiter-Glo
Procedure, shortened: (§1)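 Patient-derived ovarian cancer cells (early passage, under 10) were dispensed onto 384-well flat clear-bottom plates pre-plated with compounds at five concentrations covering a 10,000-fold range. Plates were incubated 72 h at 37 °C, 5% CO2, and viability was read with CellTiter-Glo. Data were processed in Breeze. The drug sensitivity score (DSS3) is a partial area under the percent-inhibition dose-response curve, divided by the log of the upper asymptote; higher means more sensitive.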

FMOC02_2 = patient-derived low-grade serous ovarian cancer cells; settings: 72 h; library: FO5A; assay format: 2D, 384-well, CellTiter-Glo
Procedure, shortened: as §1

FMOC02_3 = patient-derived low-grade serous ovarian cancer cells; settings: 72 h; library: FO5A; assay format: 2D, 384-well, CellTiter-Glo
Procedure, shortened: as §1

FMOC03 = patient-derived mucinous ovarian cancer cells; settings: 72 h; library: FO5A; assay format: 2D, 384-well, CellTiter-Glo
Procedure, shortened: as §1

FMOC04 = patient-derived high-grade serous ovarian cancer cells; settings: 72 h; library: FO5A; assay format: 2D, 384-well, CellTiter-Glo
Procedure, shortened: as §1

FMOC06 = patient-derived mucinous ovarian cancer cells; settings: 72 h; library: FO5A; assay format: 2D, 384-well, CellTiter-Glo
Procedure, shortened: as §1

FMOC09 = patient-derived high-grade serous ovarian cancer cells; settings: 72 h; library: FO5A; assay format: 2D, 384-well, CellTiter-Glo
Procedure, shortened: as §1

FMOC11 = patient-derived high-grade serous ovarian cancer cells; settings: 72 h; library: FO5A; assay format: 2D, 384-well, CellTiter-Glo
Procedure, shortened: as §1

FMOC14 = patient-derived high-grade serous ovarian cancer cells; settings: 72 h; library: FO5A; assay format: 2D, 384-well, CellTiter-Glo
Procedure, shortened: as §1

FMOC17 = patient-derived low-grade serous ovarian cancer cells; settings: 72 h; library: FO5A; assay format: 2D, 384-well, CellTiter-Glo
Procedure, shortened: as §1

FMOC22 = patient-derived mucinous ovarian cancer cells; settings: 72 h; library: FO5A; assay format: 2D, 384-well, CellTiter-Glo
Procedure, shortened: as §1

FMOC24 = patient-derived high-grade serous ovarian cancer cells; settings: 72 h; library: FO5A; assay format: 2D, 384-well, CellTiter-Glo
Procedure, shortened: as §1

FMOC25_1 = patient-derived low-grade serous ovarian cancer cells; settings: 72 h; library: FO4B; assay format: 2D, 384-well, CellTiter-Glo
Procedure, shortened: as §1

FMOC25_2 = patient-derived low-grade serous ovarian cancer cells; settings: 72 h; library: FO5A; assay format: 2D, 384-well, CellTiter-Glo
Procedure, shortened: as §1

FMOC27 = patient-derived low-grade serous ovarian cancer cells; settings: 72 h; library: FO5A; assay format: 2D, 384-well, CellTiter-Glo
Procedure, shortened: as §1

FMOC28 = patient-derived low-grade serous ovarian cancer cells; settings: 72 h; library: FO5A; assay format: 2D, 384-well, CellTiter-Glo
Procedure, shortened: as §1

Row | Compound | drug sensitivity score (FMOC02_1) | drug sensitivity score (FMOC02_2) | drug sensitivity score (FMOC02_3) | drug sensitivity score (FMOC03) | drug sensitivity score (FMOC04) | drug sensitivity score (FMOC06) | drug sensitivity score (FMOC09) | drug sensitivity score (FMOC11) | drug sensitivity score (FMOC14) | drug sensitivity score (FMOC17) | drug sensitivity score (FMOC22) | drug sensitivity score (FMOC24) | drug sensitivity score (FMOC25_1) | drug sensitivity score (FMOC25_2) | drug sensitivity score (FMOC27) | drug sensitivity score (FMOC28)
1 | Cn1ncnc1[C@H]1c2n[nH]c(=O)c3cc(F)cc(c23)N[C@@H]1c1ccc(F)cc1 [Talazoparib] | 7 | 2.3 | 5.7 | 0.1 | 0.25 | 2.2 | 0.9 | 1.4 | 0.7 | 2.7 | 3.5 | 4.1 | 4.8 | 5.7 | 5.5 | 0.7
2 | COc1nc(N)nc2c1ncn2[C@@H]1O[C@H](CO)[C@@H](O)[C@@H]1O [Nelarabine] | 0 | 0 | 0 | 0 | 0 | 1.7 | 0 | 0 | 0 | 0 | 0 | 1.75 | 0 | 0 | 0 | 0
3 | CCN(CC)CCN(Cc1ccc(-c2ccc(C(F)(F)F)cc2)cc1)C(=O)Cn1c(SCc2ccc(F)cc2)nc(=O)c2c1CCC2 [Darapladib] | 0 | 0 | 1.6 | 0 | 0.25 | 0 | 0 | 0.1 | 1.3 | 0 | 0 | 4.2 | 0.1 | 0 | 0 | 1.2
4 | Cn1cc(C[C@@H](N)C(=O)O)c2ccccc21 [1-methyl-D-tryptophan] | 0 | 0 | 0 | 0 | 0 | 0 | 0.2 | 0 | 0 | 0 | 0 | 0 | 0 | 0 | 0 | 0.5
5 | S=C(NCc1ccc2c(c1)OCO2)N1CCN(c2ncnc3c2oc2ccccc23)CC1 [Amuvatinib] | 0.4 | 0 | 0 | 2.6 | 0.3 | 0.8 | 0 | 0.7 | 2 | 0.3 | 2.2 | 0 | 0 | 0 | 0 | 0
6 | CN(C)C(=O)c1cc2cnc(Nc3ccc(N4CCNCC4)cn3)nc2n1C1CCCC1 [Ribociclib] | 3.1 | 1.8 | 4.4 | 0.5 | 0.05 | 0.6 | 0 | 0 | 0 | 0.3 | 0 | 1.8 | 0 | 0.8 | 0.6 | 1.7
7 | C[C@H]1Oc2cc(cnc2N)-c2c(nn(C)c2C#N)CN(C)C(=O)c2ccc(F)cc21 | 0.8 | 3.2 | 3.1 | 0 | 0 | 3.4 | 1.6 | 0 | 0 | 0 | 0 | 1.6 | 0 | 1.6 | 0 | 0
8 | CCCOc1ccn2c(C(C)=O)cc(-c3ccccc3S(C)(=O)=O)c2c1 [GSK2801] | 0 | 0.1 | 0 | 0 | 0 | 0 | 0 | 0 | 0 | 0 | 0 | 0 | 0 | 1.5 | 0 | 4.9
9 | COc1ccc(CCc2nc3cc(-c4c(C)noc4C)ccc3n2C[C@H](C)N2CCOCC2)cc1Cl [SGC-CBP30] | 4.5 | 3.3 | 2 | 2.8 | 1.3 | 4.6 | 2.5 | 4.6 | 1 | 1.4 | 2.9 | 5.6 | 0.8 | 6.1 | 3.1 | 2.4
10 | Cc1ccc(NC(=O)c2ccc(CN3CCN(C)CC3)cc2)cc1Nc1nc(-c2cccnc2)cs1 [Masitinib] | 2.8 | 2.4 | 4.8 | 3.6 | 0.9 | 4.4 | 2.7 | 3.9 | 5.4 | 4.2 | 2.6 | 5.6 | 2.2 | 3.9 | 0 | 1.2
11 | CC(=O)O[C@]1(C(C)=O)CC[C@H]2[C@@H]3C=C(C)C4=CC(=O)CC[C@]4(C)[C@H]3CC[C@@]21C [Megestrol acetate] | 0.3 | 0 | 0 | 0.2 | 0 | 0.4 | 0 | 0 | 0 | 0 | 0 | 0 | 0 | 0 | 4.6 | 1
12 | COc1ccc(Cn2ccc3ccc(C(=O)NO)cc32)cc1 | 1 | 3.4 | 1.8 | 1.1 | 0 | 0.2 | 1.1 | 0.6 | 1.1 | 1.4 | 0.4 | 0.4 | 0.8 | 2.5 | 0.2 | 4.9
13 | Nc1ncnc2c1c(COc1cccc(Cl)c1)nn2C1CCOCC1 | 0.5 | 1 | 0.4 | 0 | 0 | 0 | 0 | 0 | 0.3 | 0 | 0 | 0 | 0.6 | 1.9 | 0.8 | 0
14 | Cc1cccc(-c2nn3c(c2-c2ccnc4ccc(C(N)=O)cc24)CCC3)n1 [Galunisertib] | 0 | 0 | 0 | 0 | 0 | 0 | 0 | 0 | 0 | 0 | 0 | 0.35 | 0 | 0 | 0 | 0
15 | O=c1[nH]cc(F)c(=O)[nH]1 [Fluorouracil] | 2.3 | 1.8 | 3.6 | 0 | 2.65 | 0 | 0 | 0 | 0 | 1 | 2.2 | 0.1 | 3.1 | 4.3 | 0 | 1.2
16 | O=C(Nc1nc2cccc(-c3ccc(CN4CCS(=O)(=O)CC4)cc3)n2n1)C1CC1 [Filgotinib] | 2.6 | 2.9 | 6.1 | 0 | 0 | 1.3 | 0.4 | 0 | 0 | 3.3 | 0 | 3.1 | 1.9 | 3.9 | 5 | 5.2
17 | COc1cccc2c1c(O)c(C(=O)N(C)c1ccc(C(F)(F)F)cc1)c(=O)n2C [Tasquinimod] | 0 | 0 | 1 | 0 | 0 | 0 | 0 | 0 | 0 | 0 | 0 | 2.3 | 3.9 | 2.5 | 0.4 | 0
18 | Nc1cc(F)ccc1NC(=O)/C=C/c1cnn(C/C=C/c2ccccc2)c1 [RGFP966] | 3.1 | 2.9 | 3.5 | 2.9 | 0.6 | 2 | 0 | 3.2 | 1.9 | 0.9 | 1.4 | 2.9 | 0 | 2.5 | 0.6 | 4.6
19 | CN(c1ncccc1CNc1nc(Nc2ccc3c(c2)CC(=O)N3)ncc1C(F)(F)F)S(C)(=O)=O | 6.6 | 9.4 | 9.5 | 7.1 | 5.3 | 6.6 | 5.1 | 4.9 | 3.6 | 7 | 5.7 | 5.3 | 3.9 | 7.8 | 5.2 | 7.9
20 | O=c1sn(-c2cccc3ccccc23)c(=O)n1Cc1ccccc1 [Tideglusib] | 0 | 1 | 0 | 0 | 0 | 0 | 0 | 0 | 0 | 0 | 0 | 0 | 0.3 | 0 | 0 | 0
21 | CN1CCN(c2ccc3nc(-c4c(N)c5c(F)cccc5[nH]c4=O)[nH]c3c2)CC1 [Dovitinib] | 0.6 | 1.4 | 1.1 | 0 | 0 | 0 | 0 | 0.1 | 0 | 0 | 0 | 1.6 | 0.2 | 0.4 | 0 | 1
22 | COc1cc2ncnc(Oc3cccc(NC(=O)Nc4cc(C(C)(C)C(F)(F)F)on4)c3)c2cc1OC | 4 | 6.6 | 4.4 | 0 | 0 | 0.3 | 1.3 | 3.3 | 0.3 | 0 | 0 | 0 | 0 | 1.1 | 0 | 0
23 | COc1cc2/c(=N/c3ccc(Br)cc3F)nc[nH]c2cc1OCC1CCN(C)CC1 [Vandetanib] | 5.6 | 6.3 | 5.1 | 2.7 | 0.55 | 0.7 | 3.1 | 3.1 | 0.1 | 6.2 | 0 | 1.7 | 1.4 | 4.1 | 4.8 | 2.1
24 | CCS(=O)(=O)N1CC(CC#N)(n2cc(-c3ncnc4[nH]ccc34)cn2)C1 [Baricitinib] | 0 | 0 | 0 | 0 | 0 | 0 | 0 | 0 | 0 | 0 | 0 | 0.05 | 0 | 0 | 0 | 0
